The record followed here is paper PMC9000336, “Development of Bicyclo[3.1.0]hexane-Based A3 Receptor Ligands: Closing the Gaps in the Structure–Affinity Relationships” (Molecules, 2022).

The target of experiment [1] is T1, human adenosine A3 receptor (Homo sapiens, UniProt P0DMS8).
T1 construct: expressed in transfected cells; host or cells: CHO cells (CHOhA3R), gift of Dr. K.-N. Klotz (University of Würzburg); membrane preparation
T1 sequence (P0DMS8 1-318): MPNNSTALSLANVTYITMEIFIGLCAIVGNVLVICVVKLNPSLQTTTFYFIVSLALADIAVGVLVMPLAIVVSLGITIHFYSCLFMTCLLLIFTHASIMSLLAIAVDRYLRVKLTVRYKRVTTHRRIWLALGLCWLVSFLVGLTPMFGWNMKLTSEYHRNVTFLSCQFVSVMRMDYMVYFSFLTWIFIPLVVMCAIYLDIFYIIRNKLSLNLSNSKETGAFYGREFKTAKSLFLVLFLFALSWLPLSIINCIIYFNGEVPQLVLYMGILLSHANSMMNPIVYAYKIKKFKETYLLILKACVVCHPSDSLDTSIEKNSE
As to the kind of experiment: Radioligand displacement assay, human adenosine A3 receptor ([3H]PSB11, CHOhA3R membranes). The format is binding. The note with it: n = 3; for inhibition at 10 µM: test compound 10 µM. The procedure:
Chinese hamster ovary (CHO) cells stably expressing the human adenosine A1 receptor (CHOhA1R) were kindly provided by Prof. S. J. Hill and CHO cells stably expressing the human adenosine A3 receptor (CHOhA3R) were a gift from Dr. K.-N. Klotz (University of Würzburg, Germany). Chinese hamster ovary cells stably expressing the human A1-receptor (CHOhA1R) or the human A3-receptor (CHOhA3R) were grown in Dulbecco’s Modified Eagle’s Medium (DMEM) and Ham’s F12 medium (1:1) supplemented with 10% (v/v) newborn calf serum, 50 µg/mL streptomycin, 50 IU/mL penicillin, and 200 µg/mL G418 at 37 °C and 5% CO2. […] All cells were grown to 80–90% confluency and detached from plates by scraping them into 5 mL phosphate-buffered saline. Detached cells were collected and centrifuged at 200 g for 5 min. Pellets derived from 100 15 cm Ø plates were pooled and resuspended in 70 mL of ice-cold 50 mM tris(hydroxymethyl)aminomethane (Tris)-HCl buffer, pH 7.4. A Heidolph Diax 900 homogenizer was used to homogenize the cell suspension. Membranes and the cytosolic fraction were separated by centrifugation at 100,000 g in a Beckman Optima LE-80 K ultracentrifuge (Beckman Coulter, Fullerton, CA, USA) at 4 °C for 20 min. The pellet was resuspended in 35 mL of the Tris-HCl buffer, and the homogenization and centrifugation steps were repeated. Tris-HCl buffer (25 mL) was used to resuspend the pellet, and adenosine deaminase (ADA) was added (0.8 U/mL) to break down endogenous adenosine. Membranes were stored in 250 µL and 500 µL aliquots at −80 °C. Total protein concentrations were measured using the bicinchoninic acid (BCA) method.
A3 Receptor: Membrane aliquots containing 15 µg (CHOhA3R) total protein were incubated in a total volume of 100 µL assay buffer (50 mM Tris-HCl, pH 8.0, supplemented with 10 mM MgCl2, 1 mM EDTA and 0.01% (w/v) CHAPS) at 25 °C for 2 h. Radioligand displacement experiments were performed using six concentrations of competing ligand in the presence of 10 nM [^3H]8-ethyl-4-methyl-2-phenyl-(8R)-4,5,7,8-tetrahydro-1H-imidazo[2.1-i]purin-5-one ([^3H]PSB11). […] Nonspecific binding was determined in the presence of 100 µM NECA. Incubations were terminated by rapid vacuum filtration to separate the bound and free radioligand through prewetted 96-well GF/B filter plates using a PerkinElmer Filtermate-harvester (Perkin Elmer, Groningen, The Netherlands). Filters were subsequently washed 12 times with ice-cold 50 mM Tris-HCl supplemented with 10 mM MgCl2, and 1 mM EDTA, pH 8.0 for CHOhA3R.
The plates of all four adenosine receptor assays were dried at 55 °C after which MicroscintTM-20-cocktail was added (Perkin Elmer, Groningen, The Netherlands).
All experimental data were analyzed using the non-linear regression curve fitting program GraphPad Prism 7.0 (GraphPad Software Inc., San Diego, CA, USA). IC50 values obtained from competition displacement binding data were converted into Ki values using the Cheng–Prusoff equation.
In general terms: Displacement assays read how much labelled ligand stays bound in the presence of the test substance.

The test system of a further experiment is P1 receptor. As to the kind of experiment: P1 receptor binding studies (A1, A2A, A2B and A3), overall statement. The note with it: all four subtypes. More on the design: species or system human. As for the experimental part: A1 Receptor: Membrane aliquots containing 5 µg (CHOhA1R) protein were incubated in a total volume of 100 µL assay buffer (50 mM Tris-HCl, pH 7.4) at 25 °C for 1 h. […] Nonspecific binding was determined in the presence of 100 µM N^6-cyclopentyladenosine (CPA). Incubations were terminated by rapid vacuum filtration to separate the bound and free radioligand through prewetted 96-well GF/B filter plates using a PerkinElmer Filtermate-harvester (Perkin Elmer, Groningen, the Netherlands). Filters were subsequently washed 12 times with ice-cold 50 mM Tris-HCl, pH 7.4.
Nonspecific binding was determined in the presence of 100 µM adenosine-5-N-ethyluronamide (NECA). Incubations were terminated by rapid vacuum filtration to separate the bound and free radioligand through prewetted 96-well GF/B filter plates using a PerkinElmer Filtermate-harvester (Perkin Elmer, Groningen, The Netherlands). Filters were subsequently washed 12 times with ice-cold 50 mM Tris-HCl, pH 7.4.
A2B Receptor: Membrane aliquots containing 30 µg (CHO-spap-hA2BR) total protein were incubated in a total volume of 100 µL assay buffer (0.1% CHAPS in 50 mM TrisHCl, pH 7.4) at 25 °C for 2 h. […] Nonspecific binding was determined in the presence of 10 µM ZM241385. Incubations were terminated by rapid vacuum filtration to separate the bound and free radioligand through prewetted 96-well GF/B filter plates using a PerkinElmer Filtermate-harvester (Perkin Elmer, Groningen, the Netherlands). Filters were subsequently washed 12 times with ice-cold 0.1% BSA in 50 mM Tris-HCl, pH 7.4.
A3 Receptor: Membrane aliquots containing 15 µg (CHOhA3R) total protein were incubated in a total volume of 100 µL assay buffer (50 mM Tris-HCl, pH 8.0, supplemented with 10 mM MgCl2, 1 mM EDTA and 0.01% (w/v) CHAPS) at 25 °C for 2 h. […] Nonspecific binding was determined in the presence of 100 µM NECA. […]
All experimental data were analyzed using the non-linear regression curve fitting program GraphPad Prism 7.0 (GraphPad Software Inc., San Diego, CA, USA). […]

Bounds are passed on as bounds.

`CSc1cc(N)c2ncn([C@H]3[C@H](O)[C@H](O)[C@]4(CO)C[C@H]34)c2n1` [Compound 17, (1R,2R,3S,4R,5S)-4-(7-Amino-5-methylthio-3H-imidazo[4,5-b]pyridin-3-yl)-1-(hydroxymethyl)bicyclo[3.1.0]hexane-2,3-diol]: in experiment [1], the inhibition (usually the drop in the measured response relative to a control, in per cent) at 10 µM was 45%. Further, the “P1 receptor affinity” value in the experiment on P1 receptor is “loss of P1 receptor affinity”.

Take `OC[C@@]12C[C@@H]1[C@@H](n1cnc3c(Cl)cc(Cl)nc31)[C@H](O)[C@@H]2O` [Compound 12, (1R,2R,3S,4R,5S)-4-(5,7-Dichloro-3H-imidazo[4,5-b]pyridin-3-yl)-1-(hydroxymethyl)bicyclo[3.1.0]hexane-2,3-diol]: the Ki (in general, a dissociation constant, usually derived from enzyme kinetics or from competition with a known ligand) in experiment [1] ([3H]PSB11, read-out: A3 Ki ± SEM) was over 10 µM. The “P1 receptor affinity” value with P1 receptor is “no P1 receptor affinity”.

In experiment [1], `Nc1cc(Cl)c2ncn([C@H]3[C@H](O)[C@H](O)[C@]4(CO)C[C@H]34)c2n1` [Compound 11, (1R,2R,3S,4R,5S)-4-(5-Amino-7-chloro-3H-imidazo[4,5-b]pyridin-3-yl)-1-(hydroxymethyl)bicyclo[3.1.0]hexane-2,3-diol] yielded an inhibition at 10 µM of 4%. The “P1 receptor affinity” value with P1 receptor is “no P1 receptor affinity”.
